One series concerns HBV. In words: Inhibition of HBV proliferation in HBV producing cell line HepG 2.2.15 (competitive PCR of culture supernatant). Type of series: cell-based, Hepatitis B virus. To be noted: Hepatitis B virus, HepG2.2.15, 168 h, HepG 2.2.15, one week, read-out: Inhibitory effect on the HBV proliferation, Inhibition activity on HBV-RT (%); for inhibition at 0.01 µg/mL: 0.01 μg/ml; for inhibition at 0.1 µg/mL: 0.1 μg/ml; for inhibition at 1 µg/mL: 1 μg/ml. How it is done: The following experiment was performed to determine inhibitory effects of compounds of formula on the proliferation of HBV producing cell line.
To test for antiviral effect, replication and proliferation of HBV were measured in HepG 2.2.15, a human liver cancer cell line.
The cell concentration was adjusted to 1×10^5 cells/ml and 1 ml was added to each well of a 24-well cell culture plate, which was then kept in a culture box for 3-4 days at 37° C. under 5% CO2 until cells grew sufficiently, changing culture medium everyday. When the cells matured sufficiently, the test compounds were added to the final concentrations of 0.01, 0.1, and 1 μg/ml. One week after the addition of test compounds, he culture solution was centrifuged at 5,000 rpm for 10 min. 25 μl of supernatant was transferred to a new tube and 5 μl of lysis solution [0.54N NaOH, 0.06% NP40] was added to each tube. After keeping the tube at 37° C. for 1 hr, 30 μl . of neutralizing solution [0.09NHCl, 0.1MTris-HCl, pH7.4] was added as a reaction solution for competitive polymerase chain reaction (PCR).
PCR was performed using genetic sequence of HBV core protein as a matrix. PCR reaction was carried out by adding 1 unit of Taq polymerase enzyme to 25 pmol of each primer, 250 μM dNTP, 5 μl of PCR reaction solution [0.54N NaOH, 0.06% NP40, 0.09N HCl, 0.1M Tris-HCl, pH 7.4].
DNA polymerized by PCR was electrophoresed on Agarose gel and quantitatively analyzed using an image analyzer (Gel Dcc 1000, Bio-Rad) in order to evaluate the effect of compounds of the present invention on the reduction of HBV proliferation.
3TC (lamivudine) was used as a positive control at the same concentrations as those of the test compounds. The percentage of reduction in HBV proliferation was calculated using the group without test compound as a control and the results are represented in Table 4.

The next series has as its target T1, HBV polymerase (Hepatitis B virus genotype A2 subtype adw2, UniProt P03159).
T1 construct: made in house; host or cells: E. coli
The experiment in a line: In vitro reverse transcription activity of HBV polymerase (ELISA-type, DIG/biotin nucleotides). To be noted: read-out: Inhibition activity on HBV-RT (%); for inhibition at 0.01 µg/mL: 0.01 μg/ml test compound; for inhibition at 0.1 µg/mL: 0.1 μg/ml test compound; for inhibition at 1 µg/mL: 1 μg/ml test compound. Type of series: biochemical. As to the method:
The following in vitro experiment was performed to determine the effect of the compounds of formula 1 on the activity of HBV polymerase during reverse transcription.
The present inventors submitted application for a patent concerning HBV polymerase genetically expressed in and separated from E. coli, the process of its preparation, and the method to measure the enzyme activities (KR 94-3918, KR 96-33998). In the present experiments HBV polymerase was used which had been expressed in E. coli as stated above.
The method used in the present invention to measure in vitro reverse transcribing activities of HBV polymerase is as follows. Basic principles are the same as for ELISA. Nucleotides with biotin or digoxigenin group attached are included as substrates and anti-DIG antibodies attached to peroxidase enzyme recognize the polymerized substrates.
To the wells coated with streptavidin, 20 μl of HBV polymerase, 20 μl of reaction mixture (10 μM each of DIG-UTP and Biotin-UTP, 46 mM Tris-HCl, 266 mM KCl, 27.5 mM MgCl2, 9.2 mM DTT substrate/primer hybrid), and 20 μl of test compound (added to 1, 0.1, and 0.01 μg/ml) were added and allowed to react a 22° C. for 15 hrs. During this reaction, HBV polymerase catalyzes DNA synthesis and digoxigenin and biotin attached to nucleotides form bonds with streptavidin coated on the bottom of wells. When the reaction was done, each well was washed with 250μl of cleaning buffer (pH 7.0) for 30 seconds, which was repeated five times to remove remaining impurities. 200 μl of anti-DIG-POD antibody was added to each well and allowed to react for 1 hr at 37° C., and the wells were washed with cleaning buffer to remove impurities. 200μl each of ABTS™, a substrate of peroxidase, was then added and allowed to react at room temperature for 30 min. Absorbance was measured at 405 nm using ELISA reader.
The percentage of reduction in HBV polymerase activities for reverse transcription was calculated using the group without test compound as a control and the results are shown in Table 3.
A general note: An ELISA detects its analyte on a solid surface through an enzyme-linked reagent.

Series [1] can be described thus: Cytotoxicity test on HepG2 cells (MTT). It counts as cell-based. The following applies: human, read-out: Cytotoxity on HepG2, IC50 (50% Inhibitory Concentration).
Another series relates to HepG2 cells. In words: Cytotoxicity test on HepG2 cells (MTT). It counts as cell-based.
Series [2] addresses T2, HIV reverse transcriptase (Human immunodeficiency virus type 1 group M subtype B, UniProt P04585).
T2 construct: activities of HIV reverse transcriptase; purchased Boehringer Mannheim
In words: In vitro HIV reverse transcriptase activity (non-radioactive reverse transcriptase assay kit). Type of series: biochemical. The following applies: for Inhibitory effect on the activities of HIV reverse transcriptase, Inhibition activity on HBV-RT (%): 0.1 μg/ml test compound; for Inhibition of HIV reverse transcriptase activity: 1 μg/ml test compound. As to the method: The following in vitro experiments were done to determine the effect of compounds of formula 1 on the reduction of HIV enzyme activities in reverse transcription.
Non-radioactive reverse transcriptase assay kit (Boehringer Mannheim) was used in the measurement of in vitro transcriptase activities. 20 μl (40 ng) of HIV transcriptase and 20 μl of reaction mixture containing matrix-primer hybrid poly (A) oligo (dT) 15, DIG(digoxigenin)-dUTP, biotin-dUTP, and TTP were added to wells coated with streptavidin. Test compounds were also added at the final concentrations of 0.1 and 1 μg/ml and allowed to react at 37° C. for 1 hr. At this time, DNA is formed from RNA by the action of HIV transcriptase, forming bonds with streptavidin coated on the bottom of wells because of digoxigenin and biotin moieties attached to nucleotides.
When the reaction was completed, each well was washed with 250 μl. of cleaning buffer (pH 7.0) for 30 sec. five times to remove remaining impurities. 200 μl of anti-DIG-POD […] was added to each well, allowed to react at 37° C. for 1 hr and washed as above to remove impurities. 200 μl of ABTS™, a substrate for peroxidase, was added to each well and allowed to react at room temperature for 30min. Absorbance at 405 nm was then read for each solution using ELISA reader and used for quantitative determination of inhibitory effect on the HIV transcriptase activities. The percentage of reduction in the activities of HIV reverse transcriptase was calculated using the group without test compound as control and the results are represented in Table 5.

The source of these data is patent US6762189B1, “5-pyrimidinecarboxamide derivatives and the pharmaceutical compositions containing said derivatives” (Dong Wha Pharm. Ind. Co., Ltd., priority 1999, dated 2004).

Each structure is given as a SMILES string.

The term melting point denotes the temperature of the solid-liquid transition.

T1 sequence (P03159 whole entry): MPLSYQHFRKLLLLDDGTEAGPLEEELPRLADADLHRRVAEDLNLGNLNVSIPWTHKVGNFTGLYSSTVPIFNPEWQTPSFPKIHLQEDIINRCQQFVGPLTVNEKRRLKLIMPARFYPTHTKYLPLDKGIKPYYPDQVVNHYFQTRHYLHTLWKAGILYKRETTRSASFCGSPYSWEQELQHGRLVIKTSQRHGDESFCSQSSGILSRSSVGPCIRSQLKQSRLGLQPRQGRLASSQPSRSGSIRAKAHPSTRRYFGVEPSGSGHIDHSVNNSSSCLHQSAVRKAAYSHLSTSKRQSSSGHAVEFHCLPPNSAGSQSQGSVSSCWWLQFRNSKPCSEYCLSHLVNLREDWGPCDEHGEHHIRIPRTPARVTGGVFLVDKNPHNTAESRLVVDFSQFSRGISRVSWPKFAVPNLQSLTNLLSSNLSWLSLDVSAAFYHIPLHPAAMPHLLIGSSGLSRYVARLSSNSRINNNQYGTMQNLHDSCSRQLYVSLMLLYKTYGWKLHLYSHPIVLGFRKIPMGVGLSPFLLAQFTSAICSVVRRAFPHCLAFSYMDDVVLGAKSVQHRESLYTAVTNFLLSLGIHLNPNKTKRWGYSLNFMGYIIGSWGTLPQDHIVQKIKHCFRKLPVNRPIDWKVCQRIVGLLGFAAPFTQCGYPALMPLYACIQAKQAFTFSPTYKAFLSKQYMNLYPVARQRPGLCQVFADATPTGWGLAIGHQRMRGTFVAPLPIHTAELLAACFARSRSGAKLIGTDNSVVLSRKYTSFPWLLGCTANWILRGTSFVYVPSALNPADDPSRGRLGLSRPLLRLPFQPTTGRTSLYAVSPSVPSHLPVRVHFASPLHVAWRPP

The compound `CSc1ncc(C(=O)NCCc2ccccn2)c(Nc2ccc3[nH]ncc3c2)n1` [Example 27, 4-(1H-5-indazolylamino)-2-methylthio-N-[2-(2-pyridyl)ethyl]-5-pyrimidinecarboxamide] returned a melting point of 220 to 223 °C. In the series with HBV, the inhibition at 0.01 µg/mL is 38%, the inhibition at 0.1 µg/mL is 55% and the inhibition at 1 µg/mL is 84%. In addition, on HBV polymerase, the inhibition at 0.01 µg/mL came to 48%, the inhibition at 0.1 µg/mL was determined as 60% and the inhibition at 1 µg/mL was found to be 88%.
With `CSc1ncc(C(=O)N(C)C)c(Nc2ccc3[nH]ncc3c2)n1` [Example 15, N,N-dimethyl-4-(1H-5-indazolylamino)-2-methylthio-5-pyrimidinecarboxamide], the melting point fell in the range of 101 to 105 °C. In the series with HBV, the inhibition at 0.01 µg/mL was 25%, the inhibition at 0.1 µg/mL amounted to 52% and the inhibition at 1 µg/mL was found to be 70%. For the same compound, at HBV polymerase, the inhibition at 0.01 µg/mL is 42%, the inhibition at 0.1 µg/mL is 61% and the inhibition at 1 µg/mL came out at 77%.
On to `CSc1ncc(C(=O)NCCc2ccccn2)c(Nc2ccc3cn[nH]c3c2)n1` [Example 28, 4-(1H-6-indazolylamino)-2-methylthio-N-[2-(2-pyridyl)ethyl]-5-pyrimidinecarboxamide], for which the melting point was in the range of 230 to 231 °C. Besides, in the series on HBV, the inhibition at 0.01 µg/mL was found to be 44%, the inhibition at 0.1 µg/mL was 68% and the inhibition at 1 µg/mL was found to be 93%. In addition, on HBV polymerase, the inhibition at 0.01 µg/mL was found to be 52%, the inhibition at 0.1 µg/mL came out at 70% and the inhibition at 1 µg/mL came out at 95%.
As to `CSc1ncc(C(=O)NCCO)c(Nc2ccc3cn[nH]c3c2)n1` [Example 8, N-(2-hydroxyethyl)-4-(1H-6-indazolylamino)-2-methylthio-5-pyrimidine Carboxamide], in the series with HBV, the inhibition at 0.01 µg/mL stood at 40%, the inhibition at 0.1 µg/mL worked out at 72% and the inhibition at 1 µg/mL was found to be 88%. At HBV polymerase, the inhibition at 0.01 µg/mL is 50%, the inhibition at 0.1 µg/mL is 68% and the inhibition at 1 µg/mL was determined as 95%. Moreover, the IC50 in series [1] was over 100 mg/L. Further, the “Cytotoxity on HepG2, MCD (Minimal Cytotoxic Concentration)” value with HepG2 cells worked out at 100 µg/mL.
In turn, `CSc1ncc(C(=O)NCCN(C)C)c(Nc2ccc3cn[nH]c3c2)n1` [Example 18, N-[2-(dimethylamino)ethyl]-4-(1H-6-indazolylamino)-2-methylthio-5-pyrimidinecarboxamide] had a melting point of 162 to 167 °C. Besides, in the series with HBV, the inhibition at 0.01 µg/mL stood at 43%, the inhibition at 0.1 µg/mL amounted to 57% and the inhibition at 1 µg/mL was 88%. For the same compound, at HBV polymerase, the inhibition at 0.01 µg/mL came out at 54%, the inhibition at 0.1 µg/mL is 66% and the inhibition at 1 µg/mL was found to be 92%. In addition, in series [2], the “Inhibitory effect on the activities of HIV reverse transcriptase, Inhibition activity on HBV-RT (%)” value (“Inhibitory effect on the activities … (%)” below) amounted to 51% and the “Inhibition of HIV reverse transcriptase activity” value is recorded as 77%.
`CSc1ncc(C(=O)NCCN2CCOCC2)c(Nc2ccc3[nH]ncc3c2)n1` [Example 19, 4-(1H-5-indazolylamino)-2-methylthio-N-[2-(4-morpholinyl)ethyl]-5-pyrimidinecarboxamide] yielded a melting point of 113 to 117 °C. Moreover, on HBV polymerase, the inhibition at 0.01 µg/mL was 10%, the inhibition at 0.1 µg/mL was determined as 39% and the inhibition at 1 µg/mL turned out to be 64%. Besides, in series [2], the “Inhibitory effect on the activities … (%)” value stood at 48% and the “Inhibition of HIV reverse transcriptase activity” value worked out at 75%.
In the case of `CSc1ncc(C(=O)NCCCn2ccnc2)c(Nc2ccc3[nH]ncc3c2)n1` [Example 29, N-[3-(1H-1-imidazolyl)propyl]-4-(1H-5-indazolylamino)-2-methylthio-5-pyrimidinecarboxamide], the melting point lay in the range of 121 to 125 °C. For the same compound, at HBV polymerase, the inhibition at 0.01 µg/mL was determined as 41%, the inhibition at 0.1 µg/mL came to 56% and the inhibition at 1 µg/mL was found to be 80%. Further, in series [2], the “Inhibitory effect on the activities … (%)” value is reported as 44% and the “Inhibition of HIV reverse transcriptase activity” value was 72%.
For `CSc1ncc(C(=O)N(C)C)c(Nc2ccc3cn[nH]c3c2)n1` [Example 16, N,N-dimethyl-4-(1H-6-indazolylamino)-2-methylthio-5-pyrimidinecarboxamide], the melting point lay in the range of 164 to 166 °C. Also, on HBV polymerase, the inhibition at 0.01 µg/mL turned out to be 10%, the inhibition at 0.1 µg/mL came to 30% and the inhibition at 1 µg/mL was determined as 54%. In addition, in series [2], the “Inhibitory effect on the activities … (%)” value stood at 53% and the “Inhibition of HIV reverse transcriptase activity” value is on record as 81%.
On to `CSc1ncc(C(=O)NCc2cccnc2)c(Nc2ccc3cn[nH]c3c2)n1` [Example 26, 4-(1H-6-indazolylamino)-2-methylthio-N-(3-pyridyl)methyl-5-pyrimidinecarboxamide], for which the melting point is 253 to 256 °C. Further, in the series with HBV, the inhibition at 0.01 µg/mL was 47%, the inhibition at 0.1 µg/mL was 75% and the inhibition at 1 µg/mL was found to be 97%. On HBV polymerase, the inhibition at 0.01 µg/mL worked out at 55%, the inhibition at 0.1 µg/mL was 79% and the inhibition at 1 µg/mL came out at 98%.
In the case of `CSc1ncc(C(=O)NCc2cccnc2)c(Nc2ccc3[nH]ncc3c2)n1` [Example 25, 4-(1H-5-indazolylamino)-2-methylthio-N-(3-pyridyl)methyl-5-pyrimidinecarboxamide], the melting point lay within 268 to 270 °C. For the same compound, in the series with HBV, the inhibition at 0.01 µg/mL came out at 40%, the inhibition at 0.1 µg/mL was 65% and the inhibition at 1 µg/mL stood at 92%. In addition, on HBV polymerase, the inhibition at 0.01 µg/mL is 53%, the inhibition at 0.1 µg/mL turned out to be 76% and the inhibition at 1 µg/mL stood at 97%.
